# “And” between values parts separate entries of the source, which are not always exact repeats. Equal values may be shown once.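 In this assay, cells in 96-well plates receive the compound at five concentrations for 48 hours. Endpoints are linearly interpolated between the surrounding concentrations. Here, GI50 denotes the concentration required for 50% inhibition of growth. The concentration for full growth arrest is given as TGI.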 Where a SMILES comes first, the peptide text is derived from it. Bridges are numbered along the chain shown (N, C = ends). [ ]: non-standard residue; d: D form. ξ: configuration not given here. ξThr(3R) = C[C@@H](O)C(N)C(=O)O; S5 = C=CCCC[C@](C)(N)C(=O)O
# Test system: MDA-MB-468 breast
# Assay: growth of human tumour cells (NCI), 48 h
Compound,GI50,TGI
c1ccc(-c2n(Cc3ccc4ccccc4c3)cc[n+]2Cc2ccc3ccccc3c2)cc1,0.245 µM,1.18 µM
NC(=O)CC1(O)C=C(Br)C(=O)C(Br)=C1,1.75 µM,7.22 µM
CC[C@]1(O)CC2CN(CCc3c([nH]c4ccccc34)[C@@](C(=O)OC)(c3cc4c(cc3OC)N(C=O)[C@H]3[C@@](O)(C(=O)OC)[C@H](OC(C)=O)[C@]5(CC)C=CCN6CC[C@]43[C@@H]65)C2)C1 (stereo not given in full),< 0.005 µM,> 28.5 µM
O=C(Nc1cccc(-n2cc(-c3ccncc3)c(-c3ccc(O)c(Cl)c3)n2)c1)c1cc(C(F)(F)F)cc(C(F)(F)F)c1,3.8 µM,46 µM
COc1ccc2nc3cc([N+](=O)[O-])ccc3c(NNc3ccccc3)c2c1,0.616 µM,5.37 µM
CC(C)(C)NC(=O)[C@H]1CC[C@H]2[C@@H]3CC[C@H]4NC(=O)C=C[C@]4(C)[C@H]3CC[C@]12C,63 µM and > 100 µM,> 100 µM
Cc1nc(-c2cnc(NC(C)C)n(C)c2=O)ccc1Oc1ccnc(-c2cnn(C)c2)c1,3.01 µM,73.9 µM
NC1=NC(=O)/C(=C/c2ccc3ncccc3c2)S1,> 17.1 µM,> 25 µM
CC(=O)N[C@H](C(=O)N[C@@H](CCCNC(=N)N)C(=O)N[C@@H](CCCCN)C(=O)N[C@@H](CCCNC(=N)N)C(=O)NC(C(=O)N[C@@H](CC(C)C)C(=O)N[C@@H](CCCNC(=N)N)C(=O)N[C@@]1(C)CCC/C=C\CCC[C@@](C)(C(=O)N[C@@H](CCCNC(=N)N)C(=O)N[C@@H](CCC(=O)O)C(=O)N[C@@H](CC(C)C)C(=O)N[C@H](C(=O)N[C@@H](CCC(=O)O)C(N)=O)C(C)C)NC(=O)[C@H](CCC(N)=O)NC(=O)[C@H](CC(C)C)NC(=O)[C@H](CC(C)C)NC1=O)[C@@H](C)O)C(C)C (stereo partly drawn) (Ac-VRKR[ξThr(3R)]LR[S5]LLQ[S5]RELVE-NH2; staple (Z) 8-12),7.65 µM,18.4 µM
COc1ccc(-c2[nH]nc(N)c2-c2cc(OC)c3c(c2)OCO3)cc1,1.86 µM,6.28 µM
CC(c1ccccc1)[C@@H](C(=O)Nc1ccc(I)cc1F)N1C(=O)N[C@H](c2ccc(OC[C@H](O)CO)cc2)C1=O (stereo not given in full),11.5 µM,> 25 µM
Cc1ccc(Cl)cc1NC(=O)c1cc2ccccc2cc1O,1.31 µM,7.25 µM
O=C(Nc1ccc(-n2ccc3c(NC(=O)c4ccccc4)nccc32)cc1)Nc1cccc(C(F)(F)F)c1,2.47 µM,10.5 µM
Cc1ccc(/C=C/c2c(C(=O)/C=C/c3ccc(Cl)cc3)c(C)nc3ccccc23)cc1,2.01 µM,3.82 µM
CCN(CC)c1ccc2nc3c4ccccc4c(=O)cc-3n(-c3ccccc3)c2c1,0.333 µM,1.98 µM
Nc1cc(C(F)(F)F)c(-c2cc(N3CCOCC3)nc(N3CCOCC3)n2)cn1,0.329 µM and 0.216 µM,2.5 µM and 1.41 µM
CCOC(=O)/C(C#N)=C1\SS/C(=C(/C#N)C(=O)OCC)S1,15.6 µM,33 µM
NC(Cc1c[nH]c2ccc(F)cc12)C(=O)O (stereo not given),649 µM,> 2500 µM
CCOc1ccc2c(c1)CN(Cc1ccc(Cl)cc1)CO2,16.3 µM,34.9 µM
C[C@@H](NC(=O)c1ncnc(N)c1Cl)c1ncc(C(=O)Nc2cc(C(F)(F)F)c(Cl)cn2)s1,19.1 µM,52.5 µM
COc1ccccc1/C=C/C1=C(C)CCC(c2ccccc2OC)C1C (stereo not given),0.118 µM,> 100 µM
COc1cccc(C2=C(c3cn(C)c4cc(F)ccc34)C(=O)NC2=O)c1,13.5 µM,> 25 µM

Compound,GI50,TGI
C=C1C(=O)O[C@H]2[C@H]1CC/C(Cn1cc(-c3cccc(Cl)c3)nn1)=C\CC[C@@]1(C)O[C@@H]21,0.569 µM,2.14 µM
Clc1ccc(Nc2nc(Nc3ccccc3)nc(Nc3ccc(-c4cc(-c5ccc(Cl)cc5)on4)cc3)n2)cc1,26 µM,> 100 µM
O=C(Cc1csc2nc(-c3ccc(Cl)cc3)cn12)N/N=C/c1ccccc1O,1.57 µM,4.92 µM
Clc1ccc2ncc(-c3cccc(NC4CNC4)n3)n2c1,4.86 µM,20.5 µM
CCN(CC)CCC(CNc1ccnc2cc(Cl)ccc12)c1ccccc1 (stereo not given),2.16 µM,5.69 µM
Cc1ccc(NC(=O)Nc2c(Cl)cccc2Cl)cn1,3.12 µM,12.5 µM
O=C1c2ccccc2C(=O)c2c1ccc1c(=O)n(-c3ccccc3C(F)(F)F)nnc21,1.43 µM,3.71 µM
COc1ccc(Cn2cc3c(c2)-c2oncc2CC3)cc1OC,0.0854 µM,0.254 µM
COc1cc(/C=C/C(=O)/C=C/c2cc3ccc(Cl)cc3n(Cc3ccccc3)c2=O)ccc1O,1.65 µM,5.2 µM
COc1cc(/C=C/C(=O)N2CCC=CC2=O)cc(OC)c1OC,1.73 µM,4.7 µM
Cc1ccc(-c2nc(N3CCNCC3)c3oc(-c4ccccc4)nc3n2)cc1,1.81 µM,3.8 µM
CCCCCCCCCCCCCCCCCCOc1ccccc1CC(=O)OCC[N+](CC)(CC)CC,0.904 µM,2.15 µM
COc1ccc(-c2nn(-c3ccc(NC(=O)c4cc(Cl)cc(Cl)c4)cc3)cc2-c2ccncc2)cc1Cl,7.06 µM,> 100 µM
COc1ccc(C(=O)O[C@H]2[C@H](O[C@H]3[C@@H](O)COC(O[C@H]4C[C@H]5[C@@H]6CC=C7C[C@@H](O)CC[C@]7(C)[C@H]6CC[C@]5(C)[C@H]4[C@H](C)C(=O)CCC(C)C)[C@@H]3OC(C)=O)OC[C@@H](O)[C@@H]2O)c(C)c1 (stereo not given in full),0.0104 µM,4.89 µM
CN1CCN(c2ccc(NC(=O)c3cncnc3Nc3ccc(OCc4cccc(F)c4)c(Cl)c3)cc2)CC1,1.71 µM,8.75 µM
OCc1ccc(N2CCc3cc(F)ccc3C2)cc1Cl,0.0101 µM,< 0.0182 µM
O=C1c2cccnc2C(=O)c2c1c(C(=O)NCCn1ccnc1)c1ccccn21,2.34 µM,5.61 µM
CCOC(=O)c1c(NC(=O)c2ccccc2)sc2c3c(ccc12)OCN(C)C3,1.52 µM,3.14 µM
O=c1c2ccccc2nc(-c2ccccc2Cl)n1-c1nnc(C(F)(F)F)s1,2.29 µM,7.81 µM
COc1ccc(Cl)cc1Nc1nc(C(F)(F)F)ccc1C(=O)N/N=C/c1cccnc1,0.797 µM,4.66 µM
Nc1nnnc2nc[nH]c12,0.369 µM,

# — PubChem BioAssay (NCI)
